From ChEMBL document CHEMBL1201862, “PubChem BioAssay data set” (2004)
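Following 48 hours of exposure in 96-well plates, responses at five concentrations were used to interpolate endpoints linearly. GI50 is the concentration that inhibits growth by half.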 The source made the active and inactive calls. Rule as the data show it: active = GI50 up to about 1.1 µM and inactive = higher.

Columns and labels:
Test in all cases: DTP human tumour cell line panel, 48 h
A549 = tested on: A549
HCT-116 = tested on: HCT-116
OVCAR-5 = tested on: OVCAR-5
Malme-3M = tested on: Malme-3M
HCT-15 = tested on: HCT-15
NCI/ADR-RES = tested on: NCI/ADR-RES
CAKI-1 = tested on: CAKI-1
CCRF-CEM = tested on: CCRF-CEM
SF-539 = tested on: SF-539
SF-268 = tested on: SF-268
LOX IMVI = tested on: LOX IMVI
M14 = tested on: M14
NCI-H460 = tested on: NCI-H460
RPMI-8226 = tested on: RPMI-8226
SNB-19 = tested on: SNB-19
SK-MEL-5 = tested on: SK-MEL-5
IGROV-1 = tested on: IGROV-1
ACHN = tested on: ACHN
SR = tested on: SR
T47D = tested on: T47D
PC-3 = tested on: PC-3
KM12 = tested on: KM12
K562 = tested on: K562
SNB-75 = tested on: SNB-75
COLO 205 = tested on: COLO 205
Hs-578T = tested on: Hs-578T
SW-620 = tested on: SW-620
TK-10 = tested on: TK-10
DU-145 = tested on: DU-145
MDA-MB-231 = tested on: MDA-MB-231
EKVX = tested on: EKVX
HT-29 = tested on: HT-29
MOLT-4 = tested on: MOLT-4
MDA-MB-435 = tested on: MDA-MB-435
NCI-H226 = tested on: NCI-H226
HCC 2998 = tested on: HCC 2998
A498 = tested on: A498
SF-295 = tested on: SF-295
OVCAR-8 = tested on: OVCAR-8
UACC-62 = tested on: UACC-62
UO-31 = tested on: UO-31
MDA-N = tested on: MDA-N
HOP-62 = tested on: HOP-62
UACC-257 = tested on: UACC-257
MCF7 = tested on: MCF7
NCI-H522 = tested on: NCI-H522
BT-549 = tested on: BT-549
OVCAR-3 = tested on: OVCAR-3
786-0 = tested on: 786-0
SK-MEL-2 = tested on: SK-MEL-2
U-251 = tested on: U-251
SN12C = tested on: SN12C
SK-OV-3 = tested on: SK-OV-3
SK-MEL-28 = tested on: SK-MEL-28
NCI-H23 = tested on: NCI-H23
HL-60 = tested on: HL-60
OVCAR-4 = tested on: OVCAR-4

In the case of `COC(=O)C1Cc2ccc(C)cc2C1=O` (configuration not stated), the GI50 (A549) is reported as > 100 µM (inactive), the GI50 (HCT-116) is reported as > 100 µM (inactive) and the GI50 (OVCAR-5) is reported as > 100 µM (inactive). For the same compound, the GI50 (Malme-3M) was > 100 µM (inactive), the GI50 (HCT-15) was greater than 100 µM and the GI50 (NCI/ADR-RES) was > 100 µM (inactive). The GI50 (CAKI-1) was > 100 µM (inactive), the GI50 (CCRF-CEM) was > 100 µM (inactive) and the GI50 (SF-539) was > 100 µM (inactive). The GI50 (SF-268) was > 100 µM (inactive), the GI50 (LOX IMVI) was > 100 µM (inactive) and the GI50 (M14) was > 100 µM (inactive). The GI50 (NCI-H460) was > 100 µM (inactive), the GI50 (RPMI-8226) was > 100 µM (inactive) and the GI50 (SNB-19) was > 100 µM (inactive). The GI50 (SK-MEL-5) was 50.7 µM (inactive), the GI50 (IGROV-1) was > 100 µM (inactive) and the GI50 (ACHN) was > 100 µM (inactive). The GI50 (SR) was > 100 µM (inactive), the GI50 (T47D) was > 100 µM (inactive) and the GI50 (PC-3) was > 100 µM (inactive). For the same compound, the GI50 (KM12) was 83.4 µM (inactive), the GI50 (K562) was > 100 µM (inactive) and the GI50 (SNB-75) was > 100 µM (inactive). The GI50 (COLO 205) was > 100 µM (inactive), the GI50 (Hs-578T) was > 100 µM (inactive) and the GI50 (SW-620) was > 100 µM (inactive). For the same compound, the GI50 (TK-10) was > 100 µM (inactive), the GI50 (DU-145) was > 100 µM (inactive) and the GI50 (MDA-MB-231) was > 100 µM (inactive). For the same compound, the GI50 (EKVX) was > 100 µM (inactive), the GI50 (HT-29) was > 100 µM (inactive) and the GI50 (MOLT-4) was > 100 µM (inactive). The GI50 (MDA-MB-435) was > 100 µM (inactive), the GI50 (NCI-H226) was > 100 µM (inactive) and the GI50 (HCC 2998) was > 100 µM (inactive). For the same compound, the GI50 (A498) was > 100 µM (inactive), the GI50 (SF-295) was > 100 µM (inactive) and the GI50 (OVCAR-8) was > 100 µM (inactive). The GI50 (UACC-62) was > 100 µM (inactive), the GI50 (UO-31) was > 100 µM (inactive) and the GI50 (MDA-N) was > 100 µM (inactive). For the same compound, the GI50 (HOP-62) was > 100 µM (inactive), the GI50 (UACC-257) was > 100 µM (inactive) and the GI50 (MCF7) was > 100 µM (inactive). For the same compound, the GI50 (NCI-H522) was > 100 µM (inactive), the GI50 (BT-549) was > 100 µM (inactive) and the GI50 (OVCAR-3) was > 100 µM (inactive). For the same compound, the GI50 (786-0) was > 100 µM (inactive), the GI50 (SK-MEL-2) was > 100 µM (inactive) and the GI50 (U-251) was > 100 µM (inactive). The GI50 (SN12C) was > 100 µM (inactive), the GI50 (SK-OV-3) was > 100 µM (inactive) and the GI50 (SK-MEL-28) was > 100 µM (inactive). For the same compound, the GI50 (NCI-H23) was > 100 µM (inactive), the GI50 (HL-60) was 25.8 µM (inactive) and the GI50 (OVCAR-4) was > 100 µM (inactive).
